Experimental data from patent US9809562B2, “NAT10 modulators for treating or preventing laminopathies, aging and cancer” (CAMBRIDGE ENTERPRISE LIMITED, priority 2014, dated 2017).
Counter-ions that a name gives are not always drawn.

Experiments:
[1] = tested on: cells derived from patients with Emery-Dreifuss muscular dystrophy (EDMD); assay: γH2AX in Emery-Dreifuss muscular dystrophy cells; assay type: cell-based, human
Text: FIG. 12: Remodelin improves global cellular fitness of HGPS cells. A) NAT10 depletion in normal fibroblasts and HGPS AG11498 cells observed by western blotting, and showing that siNAT10 has no effect on Lamin A/C expression and processing. B) IF images showing nuclear shape improvement and decreased numbers of γH2AX foci in HGPS cells upon Remodelin treatment. Scale bars: 10 μm. C) Western Blotting analysis showing that Remodelin decreases γH2AX levels in both HGPS cell lines tested. D) IF images showing nuclear shape improvement and decreased intensity of γH2AX staining in Emery-Dreifuss muscular dystrophy cells (EDMD) upon Remodelin treatment. Scale bars: 10 μm. E) Western Blotting analysis showing that Remodelin decreases γH2AX levels in EDMD. F) Western blotting analysis showing the effect of Remodelin on the p53 and DNA damage signalling pathways in HGPS AG11498 cells. G) Representative IF images of H3K9me3 or SUN1 patterns quantified in H). Scale bars: 20 μm. […]
Total cell extracts were prepared by scraping cells in SDS lysis buffer (4% SDS, 20% glycerol, and 120 mM Tris-HCl, pH 6.8), boiling for 5 minutes at 95° C., followed by 10 strokes through a 25-gauge needle. […] Detection and quantification was performed with an imager (Odyssey; LI-COR Biosciences). […]

[2] = tested on: farnesyltransferase activity (pre-Lamin A cleavage and maturation); assay: Lamin A processing by western blotting; assay type: cell-based, human
Protocol: The following KAT and KDAC inhibitors were used in the nuclear shape rescue screen, incubating cells with the molecules for 16 hours: trichostatin A (1 μM), sodium butyrate (5 mM), tubacin (10 μM), SAHA (5 μM), curcumin (10 μM), garcinol (50 μM), anacardic acid (1 μM), MB-3 (5 μM), 4-(4-chlorophenyl)-2-(2-cyclopentylidenehydrazinyl)thiazole (Compound 2) (50 μM), 4-(4-chlorophenyl)-2-(2-cyclopentylidene-1-(prop-2-yn-1-yl)hydrazinyl)thiazole (Compound 3) (50 μM) and cyclopentylidene-[4-(4-cyanophenyl)thiazol-2-yl)hydrazine (Compound 1) (Remodelin) (10 to 50 μM). For HGPS cellular fitness assays, Remodelin was incubated at 1 μM for 1 to 10 days, renewing the medium every 3 days. For long-term senescence assay, cells were kept and passaged in medium containing 1 μM Remodelin or DMSO only for 12 population doublings. Senescence was assessed after 8 days of Remodelin treatment when cells were at Population Doubling 12, and then after several weeks of Remodelin treatment, when cells reached Population Doubling 24 using the Senescence β-Galactosidase Staining Kit #9860 from Cell Signaling. […]
Total cell extracts were prepared by scraping cells in SDS lysis buffer (4% SDS, 20% glycerol, and 120 mM Tris-HCl, pH 6.8), boiling for 5 minutes at 95° C., followed by 10 strokes through a 25-gauge needle. […] Detection and quantification was performed with an imager (Odyssey; LI-COR Biosciences).

[3] = tested on: tissues from Lmna^G609G/G609G mice; assay: γH2AX relative to total H2AX in mouse tissues (western blot); assay type: in vivo
Protocol: Tissues from wild type mice or Lmna^G609G/G609G mice treated with Compound 2 were harvested and proteins were extracted and loaded on a western blot which is shown in FIG. 26. Lmna^G609G/G609G mice indeed show progerin expression (readily detectable mainly in the Lung tissues), confirming their genotype. DNA damage was assessed by the DNA double strand break marker γH2AX that was quantified using a Licor Odyssey Imaging system.

SMILES	γH2AX levels in EDMD cells [1]	pre-Lamin A processing [2]	DNA damage (γH2AX relative to total H2AX) ([3]; heart and lung, treated vs untreated Lmna^G609G/G609G mice)	DNA damage (γH2AX relative to total H2AX) ([3]; liver extracts)
N#Cc1ccc(-c2csc(NN=C3CCCC3)n2)cc1 [Compound 1, 4-(4-Cyanophenyl)-2-(2-cyclopentylidenehydrazinyl)thiazole]	decreased levels of γH2AX	did not block pre-Lamin A cleavage and maturation	–	–
Clc1ccc(-c2csc(NN=C3CCCC3)n2)cc1 [Compound 2, 4-(4-Chlorophenyl)-2-(2-cyclopentylidenehydrazinyl)thiazole Hydrochloride Salt]	–	–	clear decrease of DNA damage	No effect
